What was measured:
[1] = system: isolated coronary arteries; experiment: L-lactate-induced vasodilation of preconstricted isolated coronary arteries; parameters: species or system mouse
Description: Arterial diameter measurements: Primary and secondary branches of the left anterior descending coronary arteries and third and fourth order branches of mesenteric arteries and were dissected and kept in ice-cold isolation buffer consisting of (in mM): 134 NaCl, 6 KCl, 1 MgCl2, 2 CaCl2, 10 HEPES, 7 D-glucose, pH 7.4. Isolated arteries were used for arterial diameter measurements within 8 h after dissection. Isolated arteries were cleaned of connective tissue and cannulated on glass micropipettes mounted in a linear alignment single vessel myograph chamber (Living Systems Instrumentation, St. Albans, Vt., USA). For some experiments, the vascular endothelium was functionally ablated by passage of air through the lumen (˜30 s) during the cannulation procedure. After cannulation, the chamber was placed on an inverted microscope and arteries were equilibrated at 37° C. and intravascular pressure of 20 mmHg, maintained with a pressure servo control unit (Living Systems Instrumentation, St. Albans, Vt., USA) under continuous perfusion (3-5 ml·min^−1) of physiological saline solution (PSS) consisting of (in mM): 119 NaCl, 4.7 KCl, 1.2 KH2PO4, 1.2 MgCl2, 7 D-glucose, 24 NaHCO3, 2 CaCl2, maintained at pH 7.35-7.45 via aeration with gas mixture containing 5% CO2 and 20% O2 (balanced with N2). Following an equilibration period (45-60 min), lumenal diameter was continuously monitored and recorded with a charge coupled device (CCD) camera and edge detection software (IonOptix, Milton, Mass., USA). […] Bath O2 levels were measured using a dissolved oxygen meter (World Precision Instruments, Sarasota, Fla., USA). At the end of each experiment, the maximum passive diameter was measured in the presence of Ca^2+-free PSS containing the L-type Ca^2+ channel inhibitor nifedipine (1 μM) and adenylyl cyclase activator forskolin (0.5 μM), as described previously. Vasoconstriction is expressed as a decrease in arterial diameter relative to the maximum passive diameter at a given intravascular pressure. […]

[2] = system: coronary arterial myocytes; experiment: Perforated whole cell patch clamp of outward K+ current; assay type: cell-based, mouse
Description: In situ proximity ligation: Arterial myocytes were isolated from coronary and mesenteric arteries using enzymatic digestion procedures, similar to those described previously. Briefly, arteries were incubated in digestion buffer containing (in mM): 140 NaCl, 5 KCl, 2 MgCl2, 10 HEPES, 10 glucose, pH 7.4 at 37° C. for 1 min. […]
Patch clamp electrophysiology: Arterial myocytes were isolated from coronary arteries as described above. […] Total outward K^+ currents (IK) were recorded from coronary arterial myocytes using the perforated whole cell configuration of the patch clamp technique in voltage clamp mode using an Axopatch 200B patch clamp amplifier (Axon Instruments). […] K^+ currents were recorded from each cell in the absence and presence of L-lactate (10 mM) in bath solution with and without psora-4 (500 nM). […] Patch clamp data were analyzed suing Clampfit 9 software (Axon Instruments). IK is expressed as peak currents reached during the period of depolarization normalized by cell capacitance and expressed as pA/pF.

[3] = system: isolated mesenteric arteries; experiment: Vasodilation of preconstricted isolated mesenteric arteries; parameters: species or system mouse
Description: Arterial diameter measurements: Primary and secondary branches of the left anterior descending coronary arteries and third and fourth order branches of mesenteric arteries and were dissected and kept in ice-cold isolation buffer consisting of (in mM): 134 NaCl, 6 KCl, 1 MgCl2, 2 CaCl2, 10 HEPES, 7 D-glucose, pH 7.4. Isolated arteries were used for arterial diameter measurements within 8 h after dissection. Isolated arteries were cleaned of connective tissue and cannulated on glass micropipettes mounted in a linear alignment single vessel myograph chamber (Living Systems Instrumentation, St. Albans, Vt., USA). For some experiments, the vascular endothelium was functionally ablated by passage of air through the lumen (˜30 s) during the cannulation procedure. After cannulation, the chamber was placed on an inverted microscope and arteries were equilibrated at 37° C. and intravascular pressure of 20 mmHg, maintained with a pressure servo control unit (Living Systems Instrumentation, St. Albans, Vt., USA) under continuous perfusion (3-5 ml·min^−1) of physiological saline solution (PSS) consisting of (in mM): 119 NaCl, 4.7 KCl, 1.2 KH2PO4, 1.2 MgCl2, 7 D-glucose, 24 NaHCO3, 2 CaCl2, maintained at pH 7.35-7.45 via aeration with gas mixture containing 5% CO2 and 20% O2 (balanced with N2). Following an equilibration period (45-60 min), lumenal diameter was continuously monitored and recorded with a charge coupled device (CCD) camera and edge detection software (IonOptix, Milton, Mass., USA). Experiments were performed to examine effects of step-wise increases in intravascular pressure (20-100 mmHg), elevated [K^+]o (via isosmotic replacement of KCl for NaCl), the synthetic thromboxane A2 analogue U46619 (Tocris Bioscience, Minneapolis, Minn., USA), adenosine (Sigma Aldrich, St. Louis, Mo., USA), or L-lactate (Sigma Aldrich, St. Louis, Mo., USA). For some experiments, hypoxic bath conditions were generated by perfusion of 1 mM Na2S2O4-containing PSS aerated with 5% CO2 (balance N2; 0% O2). Bath O2 levels were measured using a dissolved oxygen meter (World Precision Instruments, Sarasota, Fla., USA). At the end of each experiment, the maximum passive diameter was measured in the presence of Ca^2+-free PSS containing the L-type Ca^2+ channel inhibitor nifedipine (1 μM) and adenylyl cyclase activator forskolin (0.5 μM), as described previously. Vasoconstriction is expressed as a decrease in arterial diameter relative to the maximum passive diameter at a given intravascular pressure. Changes in diameter (e.g., vasodilation) are normalized to differences from baseline and maximum passive diameters for each experiment.

[4] = system: isolated coronary arteries; experiment: Hypoxia-induced vasodilation of isolated pressurized coronary arteries; parameters: species or system mouse; settings: psora-4 500 nM; WT coronary arteries, 60 mmHg, pre-constricted with 100 nM U46619
Description: Arterial diameter measurements: Primary and secondary branches of the left anterior descending coronary arteries and third and fourth order branches of mesenteric arteries and were dissected and kept in ice-cold isolation buffer consisting of (in mM): 134 NaCl, 6 KCl, 1 MgCl2, 2 CaCl2, 10 HEPES, 7 D-glucose, pH 7.4. Isolated arteries were used for arterial diameter measurements within 8 h after dissection. Isolated arteries were cleaned of connective tissue and cannulated on glass micropipettes mounted in a linear alignment single vessel myograph chamber (Living Systems Instrumentation, St. Albans, Vt., USA). […] Following an equilibration period (45-60 min), lumenal diameter was continuously monitored and recorded with a charge coupled device (CCD) camera and edge detection software (IonOptix, Milton, Mass., USA). […] Bath O2 levels were measured using a dissolved oxygen meter (World Precision Instruments, Sarasota, Fla., USA). At the end of each experiment, the maximum passive diameter was measured in the presence of Ca^2+-free PSS containing the L-type Ca^2+ channel inhibitor nifedipine (1 μM) and adenylyl cyclase activator forskolin (0.5 μM), as described previously. Vasoconstriction is expressed as a decrease in arterial diameter relative to the maximum passive diameter at a given intravascular pressure. […]

SMILES: C[C@H](O)C(=O)O [L-lactate]
- vasodilation in response to external L-lactate ([1]; L-lactate 5-20 mM, WT coronary arteries pre-constricted with 100 nM U46619): step-wise vasodilation
- L-lactate-induced vasodilation ([1]; coronary arteries isolated from Kvβ2−/− mice): abolished
- outward K+ current density ([2]; 10 mM L-lactate in the bath, 1-3 min): significant increase
- dilation on application of L-lactate ([3]; L-lactate 5-20 mM, WT mesenteric arteries preconstricted with 100 nM U46619): robust and reversible dilation
- L-lactate-mediated vasodilation ([3]; endothelium-denuded mesenteric arteries, 10 mM L-lactate): insensitive to endothelial denudation
- L-lactate-mediated vasodilation ([3]; mesenteric arteries constricted with elevated external K+ (60 mM) rather than U46619): abolished
- dilatory response to L-lactate ([3]; mesenteric arteries from Kvβ1.1−/− mice vs corresponding WT): not significantly different
- vasodilation in response to extracellular L-lactate ([3]; mesenteric arteries from SM22α-rtTA:TRE-Kvβ1 vs single transgenic control mice): significantly blunted vasodilation
- vasodilation in response to L-lactate ([3]; mesenteric arteries with loss of Kvβ2): eliminated

SMILES: Nc1ncnc2c1ncn2[C@@H]1O[C@H](CO)[C@@H](O)[C@H]1O [adenosine]
- vasodilation induced by adenosine ([3]; adenosine 1-100 μM, Kvβ1.1−/− or Kvβ2−/− arteries vs corresponding WT): not significantly different

SMILES: O=c1ccc2c(OCCCCc3ccccc3)c3ccoc3cc2o1 [psora-4]
- attenuation of hypoxia-induced vasodilation [4]: ~58%
- effect on L-lactate-induced vasodilation ([1]; psora-4 500 nM, L-lactate 5-20 mM, WT coronary arteries): abolished
- effect on L-lactate-induced increase in outward K+ current density ([2]; psora-4 500 nM, 10 mM L-lactate): abolished
- effect on vasodilation in response to L-lactate ([3]; psora-4 500 nM, WT mesenteric arteries): eliminated

Source: patent publication US20220226265A1, “METHODS OF CONTROLLING MYOCARDIAL BLOOD FLOW” (UNIVERSITY OF LOUISVILLE RESEARCH FOUNDATION, INC., priority 2021, published 2022)
